Experimental data as given in PMC10893631, “Receptor-based pharmacophore modeling, molecular docking, synthesis and biological evaluation of novel VEGFR-2, FGFR-1, and BRAF multi-kinase inhibitors” (BMC Chemistry, 2024).

Assays:
Assay in all cases: NCI SRB growth inhibition (single dose 10 µM / five-dose)
Assay type in all cases: cell-based, human
HCC-2998 = settings: Homo sapiens; for inhibition at 10 µM: HCC-2998 (Colon cancer), read-out: GI%; for GI50: HCC-2998, Colon cancer, five-dose
Outline: (§1)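 Percent growth relative to untreated control and time-zero cell mass, determined by SRB. Five drug levels (10-fold or half-log steps) plus control; time-zero plates fixed 24 h after seeding.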

U251 = settings: Homo sapiens, U-251; for inhibition at 10 µM: U251 (CNS cancer), read-out: GI%; for GI50: U251, CNS cancer, five-dose
Outline: as §1

CCRF-CEM = settings: Homo sapiens; for inhibition at 10 µM: CCRF-CEM (Leukemia), read-out: GI%; for GI50: CCRF-CEM, Leukemia, five-dose
Outline: as §1

PC-3 = settings: Homo sapiens; for inhibition at 10 µM: PC-3 (Prostate cancer), read-out: GI%
Outline: as §1

A549/ATCC = settings: Homo sapiens; for inhibition at 10 µM: A549/ATCC (Non-small cell lung cancer), read-out: GI%; for GI50: A549/ATCC, Non-small cell lung cancer, five-dose
Outline: as §1

HOP-92 = settings: Homo sapiens; for inhibition at 10 µM: HOP-92 (Non-small cell lung cancer), read-out: GI%
Outline: as §1

SF-539 = settings: Homo sapiens; for inhibition at 10 µM: SF-539 (CNS cancer), read-out: GI%; for GI50: SF-539, CNS cancer, five-dose
Outline: as §1

OVCAR-3 = settings: Homo sapiens; for inhibition at 10 µM: OVCAR-3 (Ovarian cancer), read-out: GI%; for GI50: OVCAR-3, Ovarian cancer, five-dose
Outline: as §1

HCT-15 = settings: Homo sapiens; for inhibition at 10 µM: HCT-15 (Colon cancer), read-out: GI%; for GI50: HCT-15, Colon cancer, five-dose
Outline: as §1

SK-MEL-28 = settings: Homo sapiens; for inhibition at 10 µM: SK-MEL-28 (Melanoma), read-out: GI%; for GI50: SK-MEL-28, Melanoma, five-dose
Outline: as §1

HS 578 T = settings: Homo sapiens; for inhibition at 10 µM: HS 578 T (Breast cancer), read-out: GI%; for GI50: HS 578 T, Breast cancer, five-dose
Outline: as §1

OVCAR-5 = settings: Homo sapiens; for inhibition at 10 µM: OVCAR-5 (Ovarian cancer), read-out: GI%; for GI50: OVCAR-5, Ovarian cancer, five-dose
Outline: as §1

MALME-3 M = settings: Homo sapiens; for inhibition at 10 µM: MALME-3 M (Melanoma), read-out: GI%; for GI50: MALME-3 M, Melanoma, five-dose
Outline: as §1

NCI-H322M = settings: Homo sapiens; for inhibition at 10 µM: NCI-H322M (Non-small cell lung cancer), read-out: GI%; for GI50: NCI-H322M, Non-small cell lung cancer, five-dose
Outline: as §1

UO-31 = settings: Homo sapiens; for inhibition at 10 µM: UO-31 (Renal cancer), read-out: GI%; for GI50: UO-31, Renal cancer, five-dose
Outline: as §1

NCI-H460 = settings: Homo sapiens; for inhibition at 10 µM: NCI-H460 (Non-small cell lung cancer), read-out: GI%; for GI50: NCI-H460, Non-small cell lung cancer, five-dose
Outline: as §1

SW-620 = settings: Homo sapiens; for inhibition at 10 µM: SW-620 (Colon cancer), read-out: GI%; for GI50: SW-620, Colon cancer, five-dose
Outline: as §1

SK-OV-3 = settings: Homo sapiens; for inhibition at 10 µM: SK-OV-3 (Ovarian cancer), read-out: GI%; for GI50: SK-OV-3, Ovarian cancer, five-dose
Outline: as §1

MDA-MB-435 = settings: Homo sapiens; for inhibition at 10 µM: MDA-MB-435 (Melanoma), read-out: GI%; for GI50: MDA-MB-435, Melanoma, five-dose
Outline: as §1

T-47D = settings: Homo sapiens, T47D; for inhibition at 10 µM: T-47D (Breast cancer), read-out: GI%; for GI50: T-47D, Breast cancer, five-dose
Outline: as §1

OVCAR-8 = settings: Homo sapiens; for inhibition at 10 µM: OVCAR-8 (Ovarian cancer), read-out: GI%; for GI50: OVCAR-8, Ovarian cancer, five-dose
Outline: as §1

HCT-116 = settings: Homo sapiens, HCT-116; for inhibition at 10 µM: read-out: GI%
Outline: as §1

MOLT-4 = settings: Homo sapiens; for inhibition at 10 µM: MOLT-4 (Leukemia), read-out: GI%; for GI50: MOLT-4, Leukemia, five-dose
Outline: as §1

MCF7 = settings: Homo sapiens; for inhibition at 10 µM: MCF7 (Breast cancer), read-out: GI%; for GI50: MCF7, Breast cancer, five-dose
Outline: as §1

A498 = settings: Homo sapiens; for inhibition at 10 µM: A498 (Renal cancer), read-out: GI%; for GI50: A498, Renal cancer, five-dose
Outline: as §1

RXF 393 = settings: Homo sapiens; for inhibition at 10 µM: RXF 393 (Renal cancer), read-out: GI%; for GI50: RXF 393, Renal cancer, five-dose
Outline: as §1

COc1ccc(-c2nc3cc(C(=O)NN=Cc4ccccc4O)ccc3[nH]2)cc1 [8h, N'-(2-Hydroxybenzylidene)-2-(4-methoxyphenyl)-1H-benzo[d]imidazole-5-carbohydrazide] was tested, and the inhibition at 10 µM (HCC-2998) was 99.6%, the GI50 (HCC-2998) was 4430 nM and the inhibition at 10 µM (U251) was greater than 100%. It also gave a GI50 (U251) of 1640 nM, an inhibition at 10 µM (CCRF-CEM) of 94.3% and a GI50 (CCRF-CEM) of 920 nM. It also gave an inhibition at 10 µM (PC-3) greater than 100%, a GI50 (PC-3; PC-3, Prostate cancer, five-dose) of 1770 nM and an inhibition at 10 µM (A549/ATCC) greater than 100%. The GI50 (A549/ATCC) was 3030 nM, the inhibition at 10 µM (HOP-92) was greater than 100% and the GI50 (HOP-92; HOP-92, Non-small cell lung cancer, five-dose) was 2830 nM. For the same compound, the inhibition at 10 µM (SF-539) was greater than 100%, the GI50 (SF-539) was 2050 nM and the inhibition at 10 µM (OVCAR-3) was greater than 100%. It also gave a GI50 (OVCAR-3) of 1980 nM, an inhibition at 10 µM (HCT-15) greater than 100% and a GI50 (HCT-15) of 1250 nM. For the same compound, the inhibition at 10 µM (SK-MEL-28) was greater than 100%, the GI50 (SK-MEL-28) was 2960 nM and the inhibition at 10 µM (HS 578 T) was greater than 100%. For the same compound, the GI50 (HS 578 T) was 940 nM, the inhibition at 10 µM (OVCAR-5) was greater than 100% and the GI50 (OVCAR-5) was 6550 nM. It also gave an inhibition at 10 µM (MALME-3 M) greater than 100%, a GI50 (MALME-3 M) of 1770 nM and an inhibition at 10 µM (NCI-H322M) of 96.7%. It also gave a GI50 (NCI-H322M) of 4230 nM, an inhibition at 10 µM (UO-31) greater than 100% and a GI50 (UO-31) of 1700 nM. For the same compound, the inhibition at 10 µM (NCI-H460) was greater than 100%, the GI50 (NCI-H460) was 1870 nM and the inhibition at 10 µM (SW-620) was greater than 100%. The GI50 (SW-620) was 1750 nM, the inhibition at 10 µM (SK-OV-3) was greater than 100% and the GI50 (SK-OV-3) was 7300 nM. For the same compound, the inhibition at 10 µM (MDA-MB-435) was greater than 100%, the GI50 (MDA-MB-435) was 1950 nM and the inhibition at 10 µM (T-47D) was greater than 100%. It also gave a GI50 (T-47D) of 2600 nM, an inhibition at 10 µM (OVCAR-8) greater than 100% and a GI50 (OVCAR-8) of 1970 nM. The GI50 (HCT-116) was 4930 nM, the inhibition at 10 µM (HCT-116) was greater than 100% and the inhibition at 10 µM (MOLT-4) was 88.5%. The GI50 (MOLT-4) was 1700 nM, the inhibition at 10 µM (MCF7) was greater than 100% and the GI50 (MCF7) was 1670 nM. It also gave an inhibition at 10 µM (A498) of 54.5%, a GI50 (A498) of 9210 nM and an inhibition at 10 µM (RXF 393) greater than 100%. It also gave a GI50 (RXF 393) of 6290 nM.

COc1ccc(-c2nc3cc(C(=O)NN=Cc4cccc(O)c4)ccc3[nH]2)cc1 [8i, N'-(3-Hydroxybenzylidene)-2-(4-methoxyphenyl)-1H-benzo[d]imidazole-5-carbohydrazide] gave an inhibition at 10 µM (HCC-2998) of 14.9%, an inhibition at 10 µM (U251) of 32.1% and an inhibition at 10 µM (CCRF-CEM) of 80.8%. The inhibition at 10 µM (PC-3) was 34.4%, the inhibition at 10 µM (A549/ATCC) was 11.2% and the inhibition at 10 µM (HOP-92) was 27%. For the same compound, the inhibition at 10 µM (SF-539) was 53.3%, the inhibition at 10 µM (OVCAR-3) was 8.04% and the inhibition at 10 µM (HCT-15) was 5.17%. The inhibition at 10 µM (SK-MEL-28) was 52.9%, the inhibition at 10 µM (HS 578 T) was 52.6% and the inhibition at 10 µM (OVCAR-5) was less than 5%. It also gave an inhibition at 10 µM (MALME-3 M) greater than 100%, an inhibition at 10 µM (NCI-H322M) of 18.3% and an inhibition at 10 µM (UO-31) of 10.5%. It also gave an inhibition at 10 µM (NCI-H460) of 5.05%, an inhibition at 10 µM (SW-620) of 6.72% and an inhibition at 10 µM (SK-OV-3) of 54%. For the same compound, the inhibition at 10 µM (MDA-MB-435) was 63.8%, the inhibition at 10 µM (T-47D) was 86.8% and the inhibition at 10 µM (OVCAR-8) was 38.1%. It also gave an inhibition at 10 µM (HCT-116) of 42.8%, an inhibition at 10 µM (MOLT-4) of 79% and an inhibition at 10 µM (MCF7) of 88.2%. For the same compound, the inhibition at 10 µM (A498) was less than 5% and the inhibition at 10 µM (RXF 393) was 14.5%.

In the case of COc1ccc(-c2nc3cc(C(=O)NN=Cc4cccc(OC)c4)ccc3[nH]2)cc1 [8j, N'-(3-Methoxybenzylidene)-2-(4-methoxyphenyl)-1H-benzo[d]imidazole-5-carbohydrazide], the inhibition at 10 µM (HCC-2998) is reported as 88.5%, the GI50 (HCC-2998) is reported as 3520 nM and the inhibition at 10 µM (U251) is reported as greater than 100%. It also gave a GI50 (U251) of 2180 nM, an inhibition at 10 µM (CCRF-CEM) of 35% and a GI50 (CCRF-CEM) of 7910 nM. For the same compound, the inhibition at 10 µM (PC-3) was greater than 100%, the inhibition at 10 µM (A549/ATCC) was greater than 100% and the GI50 (A549/ATCC) was 3050 nM. The inhibition at 10 µM (HOP-92) was greater than 100%, the inhibition at 10 µM (SF-539) was 34.1% and the GI50 (SF-539) was 11500 nM. It also gave an inhibition at 10 µM (OVCAR-3) greater than 100%, a GI50 (OVCAR-3) of 2050 nM and an inhibition at 10 µM (HCT-15) of 79.2%. For the same compound, the GI50 (HCT-15) was 3920 nM, the inhibition at 10 µM (SK-MEL-28) was 64.2% and the GI50 (SK-MEL-28) was 3930 nM. The inhibition at 10 µM (HS 578 T) was greater than 100%, the GI50 (HS 578 T) was 1900 nM and the inhibition at 10 µM (OVCAR-5) was 91.2%. The GI50 (OVCAR-5) was 4690 nM, the inhibition at 10 µM (MALME-3 M) was greater than 100% and the GI50 (MALME-3 M) was 2450 nM. It also gave an inhibition at 10 µM (NCI-H322M) greater than 100%, a GI50 (NCI-H322M) of 3030 nM and an inhibition at 10 µM (UO-31) of 98.9%. The GI50 (UO-31) was 1780 nM, the inhibition at 10 µM (NCI-H460) was greater than 100% and the GI50 (NCI-H460) was 1850 nM. It also gave an inhibition at 10 µM (SW-620) greater than 100%, a GI50 (SW-620) of 3100 nM and an inhibition at 10 µM (SK-OV-3) of 68.3%. It also gave a GI50 (SK-OV-3) of 5390 nM, an inhibition at 10 µM (MDA-MB-435) of 76.5% and a GI50 (MDA-MB-435) of 6250 nM. The inhibition at 10 µM (T-47D) was greater than 100%, the GI50 (T-47D) was 2620 nM and the inhibition at 10 µM (OVCAR-8) was greater than 100%. For the same compound, the GI50 (OVCAR-8) was 1920 nM, the GI50 (HCT-116) was 2990 nM and the inhibition at 10 µM (HCT-116) was greater than 100%. It also gave an inhibition at 10 µM (MOLT-4) of 59.4%, a GI50 (MOLT-4) of 22600 nM and an inhibition at 10 µM (MCF7) greater than 100%. The GI50 (MCF7) was 2500 nM, the inhibition at 10 µM (A498) was less than 5% and the GI50 (A498) was 21500 nM. It also gave an inhibition at 10 µM (RXF 393) greater than 100% and a GI50 (RXF 393) of 2260 nM.
